Tests used:
Type in all cases: binding
panel of 442 kinases [1] = target: T1, panel of 442 kinases (Homo sapiens, UniProt P42681); conditions: kinase TXK; compound concentration 10 µM
T1 construct: purchased KINOMEscan
T1 sequence (P42681 1-527): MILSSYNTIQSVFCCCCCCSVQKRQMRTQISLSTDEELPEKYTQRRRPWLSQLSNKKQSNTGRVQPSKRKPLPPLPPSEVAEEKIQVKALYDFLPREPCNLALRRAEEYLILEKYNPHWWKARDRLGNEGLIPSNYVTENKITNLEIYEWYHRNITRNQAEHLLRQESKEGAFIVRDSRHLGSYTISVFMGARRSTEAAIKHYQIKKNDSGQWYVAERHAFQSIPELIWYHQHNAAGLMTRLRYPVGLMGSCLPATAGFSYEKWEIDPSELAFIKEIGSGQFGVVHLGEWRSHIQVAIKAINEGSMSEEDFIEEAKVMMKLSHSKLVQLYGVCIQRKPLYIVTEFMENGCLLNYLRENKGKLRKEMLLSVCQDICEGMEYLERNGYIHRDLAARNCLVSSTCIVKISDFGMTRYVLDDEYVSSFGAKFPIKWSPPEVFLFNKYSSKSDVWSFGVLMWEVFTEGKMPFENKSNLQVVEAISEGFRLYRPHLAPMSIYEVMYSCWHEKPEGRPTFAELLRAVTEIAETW
From the text: (§1) We assessed the selectivity of members of this scaffold using the KINOMEscan methodology across a near comprehensive panel of 442 kinases [[18,27]].

panel of 442 kinases [2] = target: T2, panel of 442 kinases (Homo sapiens, UniProt P48729); conditions: Compound Concentration 10 µM
T2 construct: purchased KINOMEscan
From the text: as §1

panel of 442 kinases [3] = target: T3, panel of 442 kinases (Homo sapiens, UniProt Q15831); conditions: Compound Concentration 10 µM
T3 construct: purchased KINOMEscan
T3 sequence (Q15831 1-433): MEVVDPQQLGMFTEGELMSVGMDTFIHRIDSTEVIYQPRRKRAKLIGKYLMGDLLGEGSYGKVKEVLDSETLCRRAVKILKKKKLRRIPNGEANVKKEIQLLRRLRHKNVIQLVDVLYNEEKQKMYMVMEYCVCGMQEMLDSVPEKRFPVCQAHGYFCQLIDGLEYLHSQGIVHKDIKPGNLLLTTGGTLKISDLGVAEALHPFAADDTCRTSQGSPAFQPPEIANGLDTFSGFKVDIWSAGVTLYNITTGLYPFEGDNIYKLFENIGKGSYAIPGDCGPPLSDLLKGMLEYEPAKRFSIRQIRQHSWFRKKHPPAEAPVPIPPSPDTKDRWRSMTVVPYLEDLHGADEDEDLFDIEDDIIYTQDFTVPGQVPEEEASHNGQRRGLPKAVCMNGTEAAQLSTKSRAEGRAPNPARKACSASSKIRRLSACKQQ
From the text: as §1

T2 sequence (P48729 whole entry): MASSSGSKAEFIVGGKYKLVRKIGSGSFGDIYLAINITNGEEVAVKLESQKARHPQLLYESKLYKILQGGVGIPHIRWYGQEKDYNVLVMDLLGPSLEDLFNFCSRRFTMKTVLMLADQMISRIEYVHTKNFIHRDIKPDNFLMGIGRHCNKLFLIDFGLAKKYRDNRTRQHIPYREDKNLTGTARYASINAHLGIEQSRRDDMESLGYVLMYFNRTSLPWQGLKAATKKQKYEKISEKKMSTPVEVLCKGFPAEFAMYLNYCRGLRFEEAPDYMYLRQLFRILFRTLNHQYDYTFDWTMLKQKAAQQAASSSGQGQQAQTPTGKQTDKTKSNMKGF

SMILES | % Ctrl, TXK (panel of 442 kinases [1]) | KINOMEscan: CSNK1A1 (panel of 442 kinases [2]) | KINOMEscan: LKB1 (panel of 442 kinases [3])
COc1cc(C(=O)N2CCC(N3CCN(C)CC3)CC2)ccc1Nc1ncc2c(n1)N(C)c1ccccc1C(=O)N2C [15 (LRRK2-IN-1)] | 91 % Ctrl | 100 | 96
CCOc1cc(C(=O)N2CCC(N3CCN(C)CC3)CC2)ccc1Nc1ncc2c(n1)N(C1CCCC1)c1ccccc1C(=O)N2C [Compound 26] | 100 % Ctrl | 100 | 100
COc1cc(C(=O)N2CCC(N3CCN(C)CC3)CC2)ccc1Nc1ncc2c(n1)N1CCc3cccc(c31)C(=O)N2C [Compound 24] | 93 % Ctrl |  | 
COc1cc(C(=O)N2CCC(N3CCN(C)CC3)CC2)ccc1Nc1ncc2c(n1)N(C1CCCC1)c1ccccc1C(=O)N2C [Compound 25, 11-cyclopentyl-2-((2-methoxy-4-(4-(4-methylpiperazin-1-yl)piperidine-1-carbonyl)phenyl)amino)-5-methyl-5H-benzo[e]pyrimido[5,4-b][1,4]diazepin-6(11H)-one] | 95 % Ctrl | 100 | 82
